Laboratory results reported in US20120277161A1, “INHIBITION OF MULTIPLE CELL ACTIVATION PATHWAYS” (INTER-K PTY LIMITED, priority 2009, published 2012).
Blank lines part the entries; values can stand above or below the compound they belong to.

Tests used:
Type in all cases: biochemical
c-SRC (h) = c-SRC (h) (Homo sapiens, UniProt P12931); test: c-Src kinase activity assay (cell-free, 33P-ATP); settings: peptide 50 μM, relative to control
Method: (§1) In a final reaction volume of 25 μL, c-SRC (h) (5-10 mU) is incubated with 8 mM MOPS pH 7.0, 0.2 mM EDTA, 250 μM KVEKIGEGTYGVVYK (SEQ ID No. 19) (Cdc2 peptide), 10 mM MgAcetate and [γ-33P-ATP] (specific activity approx. 500 cpm/pmol, concentration as required). The reaction is initiated by the addition of the MgATP mix. After incubation for 40 minutes at room temperature, the reaction is stopped by the addition of 5 μL of a 3% phosphoric acid solution. 10 μL of the reaction is then spotted onto a P30 filtermat and washed three times for 5 minutes in 75 mM phosphoric acid and once in methanol prior to drying and scintillation counting.

PI3K P110δ = PI3K P110δ (Homo sapiens, UniProt O00329); test: PI3K HTRF activity assay; settings: dendrimer conc. 1 μM; read-out: Percentage (%) kinase inhibition PI3K P110δ
Chain of PI3K P110δ (O00329 whole entry, the tested form may be a part): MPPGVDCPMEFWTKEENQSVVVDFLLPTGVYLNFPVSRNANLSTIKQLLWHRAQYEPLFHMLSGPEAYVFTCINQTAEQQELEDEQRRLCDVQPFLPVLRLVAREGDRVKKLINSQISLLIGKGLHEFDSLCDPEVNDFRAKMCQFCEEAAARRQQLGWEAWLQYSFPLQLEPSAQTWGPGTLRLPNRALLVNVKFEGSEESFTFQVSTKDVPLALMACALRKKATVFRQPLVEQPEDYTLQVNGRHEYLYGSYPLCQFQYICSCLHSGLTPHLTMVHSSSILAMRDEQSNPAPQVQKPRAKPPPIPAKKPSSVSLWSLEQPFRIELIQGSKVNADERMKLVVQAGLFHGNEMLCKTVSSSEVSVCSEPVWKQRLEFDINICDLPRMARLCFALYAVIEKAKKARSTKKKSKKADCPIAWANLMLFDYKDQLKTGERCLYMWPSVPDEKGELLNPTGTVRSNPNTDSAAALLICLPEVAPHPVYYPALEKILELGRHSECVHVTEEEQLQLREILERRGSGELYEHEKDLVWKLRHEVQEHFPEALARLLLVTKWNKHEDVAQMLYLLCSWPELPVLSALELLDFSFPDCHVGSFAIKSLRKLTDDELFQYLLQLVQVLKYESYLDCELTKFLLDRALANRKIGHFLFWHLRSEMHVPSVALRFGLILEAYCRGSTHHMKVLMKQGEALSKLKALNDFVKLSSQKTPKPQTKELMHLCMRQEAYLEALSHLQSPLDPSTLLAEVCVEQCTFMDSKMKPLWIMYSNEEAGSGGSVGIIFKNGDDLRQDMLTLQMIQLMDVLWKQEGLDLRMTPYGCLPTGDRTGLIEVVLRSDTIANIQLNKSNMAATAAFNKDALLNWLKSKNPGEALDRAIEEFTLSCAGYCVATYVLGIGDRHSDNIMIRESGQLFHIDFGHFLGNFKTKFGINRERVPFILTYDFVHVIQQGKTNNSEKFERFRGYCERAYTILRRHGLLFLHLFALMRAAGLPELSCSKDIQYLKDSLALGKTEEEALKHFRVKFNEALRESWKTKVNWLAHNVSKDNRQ
Chain of PI3K P110δ (P27986 whole entry partner, the tested form may be a part): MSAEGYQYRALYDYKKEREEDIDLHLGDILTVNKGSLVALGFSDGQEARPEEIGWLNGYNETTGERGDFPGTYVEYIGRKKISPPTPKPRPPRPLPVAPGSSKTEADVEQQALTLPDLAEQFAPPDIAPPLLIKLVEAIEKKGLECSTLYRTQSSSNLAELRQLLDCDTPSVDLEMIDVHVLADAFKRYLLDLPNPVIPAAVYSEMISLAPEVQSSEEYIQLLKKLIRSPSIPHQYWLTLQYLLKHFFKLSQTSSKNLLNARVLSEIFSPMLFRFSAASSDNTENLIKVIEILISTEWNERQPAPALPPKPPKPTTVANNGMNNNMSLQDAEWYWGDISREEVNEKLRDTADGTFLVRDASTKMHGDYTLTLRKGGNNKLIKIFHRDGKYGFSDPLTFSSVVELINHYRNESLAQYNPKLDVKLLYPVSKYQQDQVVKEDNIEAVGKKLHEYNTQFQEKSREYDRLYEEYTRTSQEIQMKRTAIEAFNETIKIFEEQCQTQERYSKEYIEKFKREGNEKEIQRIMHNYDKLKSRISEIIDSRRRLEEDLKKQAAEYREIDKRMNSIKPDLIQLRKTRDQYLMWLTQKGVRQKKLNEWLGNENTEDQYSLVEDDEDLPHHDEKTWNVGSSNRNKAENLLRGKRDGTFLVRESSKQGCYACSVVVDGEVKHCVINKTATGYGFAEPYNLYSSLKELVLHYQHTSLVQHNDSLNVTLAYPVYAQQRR
Method: (§2) In a final reaction volume of 20 μL, the test PI3K is incubated in assay buffer containing 10 μM phosphatidylinositol-4,5-bisphosphate and MgATP. The reaction is initiated by the addition of the MgATP mix. After incubation for 30 minutes at room temperature, the reaction is stopped by the addition of 5 μL of stop solution containing EDTA and biotinylated phosphatidylinositol-3,4,5-trisphosphate. Finally, 5 μL of detection buffer is added (containing europium-labelled anti-GST monoclonal antibody, GST-tagged GRP1 PH domain and streptavidin-allophycocyanin). The test plate is then read in time-resolved fluorescence mode and the homogenous time-resolved fluorescence (HTRF) signal is determined according to the formula HTRF=10000×(Em665 nm/Em620 nm).

PI3K beta = PI3K beta (Homo sapiens, UniProt P42338); test: PI3K HTRF activity assay; settings: dendrimer conc. 1 μM; read-out: Percentage (%) kinase inhibition PI3K P110β
Chain of PI3K beta (P42338 whole entry, species assumed): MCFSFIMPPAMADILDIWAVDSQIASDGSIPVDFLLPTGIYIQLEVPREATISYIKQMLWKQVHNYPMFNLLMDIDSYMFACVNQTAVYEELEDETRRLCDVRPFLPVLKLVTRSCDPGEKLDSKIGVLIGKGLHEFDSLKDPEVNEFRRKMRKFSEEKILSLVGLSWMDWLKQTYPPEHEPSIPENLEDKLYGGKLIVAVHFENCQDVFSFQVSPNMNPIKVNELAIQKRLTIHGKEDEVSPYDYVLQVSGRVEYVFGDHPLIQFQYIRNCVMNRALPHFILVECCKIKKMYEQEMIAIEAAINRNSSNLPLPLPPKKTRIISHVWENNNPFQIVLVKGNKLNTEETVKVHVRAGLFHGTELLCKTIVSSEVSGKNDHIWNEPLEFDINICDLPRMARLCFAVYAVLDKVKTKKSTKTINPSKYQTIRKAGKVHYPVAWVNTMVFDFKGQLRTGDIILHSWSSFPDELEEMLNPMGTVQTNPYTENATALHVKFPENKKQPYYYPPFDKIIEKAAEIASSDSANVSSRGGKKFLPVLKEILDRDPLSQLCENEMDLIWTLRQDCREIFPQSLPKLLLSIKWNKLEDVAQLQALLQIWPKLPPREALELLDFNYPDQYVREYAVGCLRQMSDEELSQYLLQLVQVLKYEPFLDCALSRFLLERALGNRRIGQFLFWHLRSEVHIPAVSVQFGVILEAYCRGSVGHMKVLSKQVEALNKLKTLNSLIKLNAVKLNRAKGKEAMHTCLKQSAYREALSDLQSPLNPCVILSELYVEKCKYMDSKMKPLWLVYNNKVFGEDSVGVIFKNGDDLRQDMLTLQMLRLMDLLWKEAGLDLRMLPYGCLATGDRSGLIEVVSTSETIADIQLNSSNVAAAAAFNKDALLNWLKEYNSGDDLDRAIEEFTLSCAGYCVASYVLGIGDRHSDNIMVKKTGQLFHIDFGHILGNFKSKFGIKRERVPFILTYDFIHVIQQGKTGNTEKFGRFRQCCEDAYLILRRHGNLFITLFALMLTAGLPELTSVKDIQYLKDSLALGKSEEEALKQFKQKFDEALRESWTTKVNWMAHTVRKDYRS
Chain of PI3K beta (P27986 whole entry partner, species assumed): as the sequence (P27986 whole entry partner, the tested form may be a part) above
Method: as §2

c-RAF (h) = c-RAF (h) (Homo sapiens, UniProt P04049); test: c-RAF kinase activity assay; settings: dendrimer conc. 1 μM; read-out: Percentage (%) kinase inhibition c-RAF
Chain of c-RAF (h) (P04049 whole entry): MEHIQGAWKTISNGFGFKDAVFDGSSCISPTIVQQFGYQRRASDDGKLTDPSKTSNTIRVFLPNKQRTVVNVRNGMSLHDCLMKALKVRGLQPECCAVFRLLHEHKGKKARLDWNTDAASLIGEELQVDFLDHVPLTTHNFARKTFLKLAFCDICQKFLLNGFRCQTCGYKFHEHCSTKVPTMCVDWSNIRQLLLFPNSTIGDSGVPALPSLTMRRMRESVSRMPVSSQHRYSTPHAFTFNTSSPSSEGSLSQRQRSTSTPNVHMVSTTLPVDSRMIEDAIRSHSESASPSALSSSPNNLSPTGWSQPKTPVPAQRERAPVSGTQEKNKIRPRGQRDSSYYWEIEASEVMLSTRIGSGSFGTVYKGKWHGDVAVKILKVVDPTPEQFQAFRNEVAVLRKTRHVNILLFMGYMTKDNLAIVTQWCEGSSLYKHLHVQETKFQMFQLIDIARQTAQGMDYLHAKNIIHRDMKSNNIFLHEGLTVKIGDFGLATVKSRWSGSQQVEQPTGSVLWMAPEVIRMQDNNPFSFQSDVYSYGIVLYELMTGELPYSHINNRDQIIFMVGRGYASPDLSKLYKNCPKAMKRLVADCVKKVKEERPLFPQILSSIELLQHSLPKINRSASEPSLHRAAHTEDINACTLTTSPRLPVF
Method: as §1, with “c-RAF” for “c-SRC”, “25” for “8”, “Tris” for “MOPS”, “7.5, 0.02” for “7.0, 0.2”, “EGTA, 0.66 mg/mL myelin basic protein,” for “EDTA, 250 μM KVEKIGEGTYGVVYK (SEQ ID No. 19) (Cdc2 peptide),”

MEK1 (h) = MEK1 (h) (Homo sapiens, UniProt Q02750); test: MEK1 kinase activity assay; settings: dendrimer conc. 1 μM; read-out: Percentage (%) kinase inhibition MEK1
Method: The reaction is initiated by the addition of the MgATP. After incubation for 40 minutes at room temperature, 5 μL of this incubation mix is used to initiate an ERK2 (m) assay.

PKC beta II = PKC beta II (Homo sapiens, UniProt P05771); test: PKC kinase activity assay; settings: dendrimer conc. 1 μM; read-out: Percentage (%) kinase inhibition PKC beta II
Method: as §1, with “PKC kinase” for “μL, c-SRC”, “20” for “8”, “HEPES” for “MOPS”, “7.4, 0.03% Triton X-100, […], 0.1 mg/mL phosphatidylserine, 10 μg/mL diacylglycerol, 0.1 mg/mL histone H1 or 50” for “7.0, 0.2 mM EDTA, 250”, “of the peptide ERMRPRKRQGSVRRRV” for “KVEKIGEGTYGVVYK”, “20),” for “19) (Cdc2 peptide),”

PKC alpha = PKC alpha (Homo sapiens, UniProt P17252); test: PKC kinase activity assay; settings: dendrimer conc. 1 μM; read-out: Percentage (%) kinase inhibition PKC alpha
Method: as §1, with “PKC kinase” for “μL, c-SRC”, “20” for “8”, “HEPES” for “MOPS”, “7.4, 0.03% Triton X-100, […], 0.1 mg/mL phosphatidylserine, 10 μg/mL diacylglycerol, 0.1 mg/mL histone H1 or 50” for “7.0, 0.2 mM EDTA, 250”, “of the peptide ERMRPRKRQGSVRRRV” for “KVEKIGEGTYGVVYK”, “20),” for “19) (Cdc2 peptide),”

PKC beta I = PKC beta I (Homo sapiens, UniProt P05771); test: PKC kinase activity assay; settings: dendrimer conc. 1 μM; read-out: Percentage (%) kinase inhibition PKC beta I
Chain of PKC beta I (P05771 whole entry): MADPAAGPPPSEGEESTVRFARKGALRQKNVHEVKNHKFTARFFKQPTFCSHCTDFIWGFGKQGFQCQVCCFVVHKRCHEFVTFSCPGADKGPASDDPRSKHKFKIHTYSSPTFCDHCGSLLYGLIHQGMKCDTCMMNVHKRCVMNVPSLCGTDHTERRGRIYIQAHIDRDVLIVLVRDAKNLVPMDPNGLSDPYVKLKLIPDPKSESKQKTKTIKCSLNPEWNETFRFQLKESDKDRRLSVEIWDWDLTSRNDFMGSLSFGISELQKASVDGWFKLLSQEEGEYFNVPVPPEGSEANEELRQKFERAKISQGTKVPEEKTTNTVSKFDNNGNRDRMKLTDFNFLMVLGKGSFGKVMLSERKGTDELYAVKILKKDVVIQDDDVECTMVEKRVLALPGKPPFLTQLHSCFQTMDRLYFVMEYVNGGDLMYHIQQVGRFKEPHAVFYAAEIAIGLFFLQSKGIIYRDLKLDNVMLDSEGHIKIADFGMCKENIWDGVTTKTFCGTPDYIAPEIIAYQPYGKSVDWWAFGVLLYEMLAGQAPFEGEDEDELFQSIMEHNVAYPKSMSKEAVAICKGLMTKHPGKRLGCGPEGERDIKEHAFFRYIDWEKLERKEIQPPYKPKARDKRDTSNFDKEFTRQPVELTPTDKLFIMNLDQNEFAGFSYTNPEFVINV
Method: as §1, with “PKC kinase” for “μL, c-SRC”, “20” for “8”, “HEPES” for “MOPS”, “7.4, 0.03% Triton X-100, […], 0.1 mg/mL phosphatidylserine, 10 μg/mL diacylglycerol, 0.1 mg/mL histone H1 or 50” for “7.0, 0.2 mM EDTA, 250”, “of the peptide ERMRPRKRQGSVRRRV” for “KVEKIGEGTYGVVYK”, “20),” for “19) (Cdc2 peptide),”

PKB beta = PKB beta (Homo sapiens, UniProt P31751); test: PKB kinase activity assay; settings: dendrimer conc. 1 μM; read-out: Percentage (%) kinase inhibition PKB beta
Method: as §1, with “25 μL, PKB(h) (5-10 mU)” for “25 μL, c-SRC (h) (5-10 mU)”, “mM EDTA, 30 μM GRPRTSSFAEGKK” for “mM EDTA, 250 μM KVEKIGEGTYGVVYK”, “30 μM GRPRTSSFAEGKK (SEQ ID” for “250 μM KVEKIGEGTYGVVYK (SEQ ID”, “ID No. 26), 10 mM” for “ID No. 19) (Cdc2 peptide), 10 mM”, “the reaction mixture is then” for “the reaction is then”

PKB gamma = PKB gamma (Homo sapiens, UniProt Q9Y243); test: PKB kinase activity assay; settings: dendrimer conc. 1 μM; read-out: Percentage (%) kinase inhibition PKB gamma
Method: as §1, with “25 μL, PKB(h) (5-10 mU)” for “25 μL, c-SRC (h) (5-10 mU)”, “mM EDTA, 30 μM GRPRTSSFAEGKK” for “mM EDTA, 250 μM KVEKIGEGTYGVVYK”, “30 μM GRPRTSSFAEGKK (SEQ ID” for “250 μM KVEKIGEGTYGVVYK (SEQ ID”, “ID No. 26), 10 mM” for “ID No. 19) (Cdc2 peptide), 10 mM”, “the reaction mixture is then” for “the reaction is then”

% Inhibition of control, c-Src tyrosine kinase activity (c-SRC (h)): No inhibitory activity
Compound: WQTGT [Peptide 7]

Compound: NPLYR [Peptide 8]
% Inhibition of control, c-Src tyrosine kinase activity (c-SRC (h)): negligible or no c-Src inhibitory activity

Compound: RSKAK [Peptide 6]
% Inhibition of control, c-Src tyrosine kinase activity (c-SRC (h)): negligible or no c-Src inhibitory activity

Compound: CC(C)C[C@@H](NC(=O)[C@H]1CCCN1C(=O)[C@@H](CC(N)=O)NC(=O)[C@@H](CCCNC(=N)N)NC(=O)[C@@H](C)NC(=O)[C@@H](CCCNC(=N)N)NC(=O)[C@@H](CO)NC(=O)[C@H](N)CCCNC(=N)N)C(=O)N[C@H](Cc1ccc(O)cc1)C(=O)N[C@H](CCCNC(=N)N)C(=O)NCCCC[C@H](NC(=O)[C@H](CCCCNC(=O)[C@H](CCCCNC(=O)[C@@H](CCCNC(=N)N)NC(=O)[C@@H](Cc1ccc(O)cc1)NC(=O)[C@@H](CC(C)C)NC(=O)[C@H]1CCCN1C(=O)[C@@H](CC(N)=O)NC(=O)[C@@H](CCCNC(=N)N)NC(=O)[C@@H](C)NC(=O)[C@@H](CCCNC(=N)N)NC(=O)[C@@H](CO)NC(=O)[C@H](N)CCCNC(=N)N)NC(=O)[C@@H](CCCNC(=N)N)NC(=O)[C@@H](Cc1ccc(O)cc1)NC(=O)[C@@H](CC(C)C)NC(=O)[C@H]1CCCN1C(=O)[C@@H](CC(N)=O)NC(=O)[C@@H](CCCNC(=N)N)NC(=O)[C@@H](C)NC(=O)[C@@H](CCCNC(=N)N)NC(=O)[C@@H](CO)NC(=O)[C@H](N)CCCNC(=N)N)NC(=O)[C@H](CCCCNC(=O)[C@@H](CCCNC(=N)N)NC(=O)[C@@H](Cc1ccc(O)cc1)NC(=O)[C@@H](CC(C)C)NC(=O)[C@H]1CCCN1C(=O)[C@@H](CC(N)=O)NC(=O)[C@@H](CCCNC(=N)N)NC(=O)[C@@H](C)NC(=O)[C@@H](CCCNC(=N)N)NC(=O)[C@@H](CO)NC(=O)[C@H](N)CCCNC(=N)N)NC(=O)[C@@H](CCCNC(=N)N)NC(=O)[C@@H](Cc1ccc(O)cc1)NC(=O)[C@@H](CC(C)C)NC(=O)[C@H]1CCCN1C(=O)[C@@H](CC(N)=O)NC(=O)[C@@H](CCCNC(=N)N)NC(=O)[C@@H](C)NC(=O)[C@@H](CCCNC(=N)N)NC(=O)[C@@H](CO)NC(=O)[C@H](N)CCCNC(=N)N)C(=O)NCCCC[C@H](NC(=O)[C@H](CCCCNC(=O)[C@@H](CCCNC(=N)N)NC(=O)[C@@H](Cc1ccc(O)cc1)NC(=O)[C@@H](CC(C)C)NC(=O)[C@H]1CCCN1C(=O)[C@@H](CC(N)=O)NC(=O)[C@@H](CCCNC(=N)N)NC(=O)[C@@H](C)NC(=O)[C@@H](CCCNC(=N)N)NC(=O)[C@@H](CO)NC(=O)[C@H](N)CCCNC(=N)N)NC(=O)[C@H](CCCCNC(=O)[C@H](CCCCNC(=O)[C@@H](CCCNC(=N)N)NC(=O)[C@@H](Cc1ccc(O)cc1)NC(=O)[C@@H](CC(C)C)NC(=O)[C@H]1CCCN1C(=O)[C@@H](CC(N)=O)NC(=O)[C@@H](CCCNC(=N)N)NC(=O)[C@@H](C)NC(=O)[C@@H](CCCNC(=N)N)NC(=O)[C@@H](CO)NC(=O)[C@H](N)CCCNC(=N)N)NC(=O)[C@@H](CCCNC(=N)N)NC(=O)[C@@H](Cc1ccc(O)cc1)NC(=O)[C@@H](CC(C)C)NC(=O)[C@H]1CCCN1C(=O)[C@@H](CC(N)=O)NC(=O)[C@@H](CCCNC(=N)N)NC(=O)[C@@H](C)NC(=O)[C@@H](CCCNC(=N)N)NC(=O)[C@@H](CO)NC(=O)[C@H](N)CCCNC(=N)N)NC(=O)[C@H](CCCCNC(=O)[C@@H](CCCNC(=N)N)NC(=O)[C@@H](Cc1ccc(O)cc1)NC(=O)[C@@H](CC(C)C)NC(=O)[C@H]1CCCN1C(=O)[C@@H](CC(N)=O)NC(=O)[C@@H](CCCNC(=N)N)NC(=O)[C@@H](C)NC(=O)[C@@H](CCCNC(=N)N)NC(=O)[C@@H](CO)NC(=O)[C@H](N)CCCNC(=N)N)NC(=O)[C@@H](CCCNC(=N)N)NC(=O)[C@@H](Cc1ccc(O)cc1)NC(=O)[C@@H](CC(C)C)NC(=O)[C@H]1CCCN1C(=O)[C@@H](CC(N)=O)NC(=O)[C@@H](CCCNC(=N)N)NC(=O)[C@@H](C)NC(=O)[C@@H](CCCNC(=N)N)NC(=O)[C@@H](CO)NC(=O)[C@H](N)CCCNC(=N)N)C(=O)NCCC(N)=O
inhibition at 1 µM (PI3K P110δ): 61%
inhibition at 1 µM (PI3K beta): 24%
inhibition at 1 µM (c-RAF (h)): 85%
inhibition at 1 µM (MEK1 (h)): 95%
inhibition at 1 µM (PKC beta II): 77%
inhibition at 1 µM (PKC alpha): 53%
inhibition at 1 µM (PKC beta I): 79%
inhibition at 1 µM (PKB beta): 87%
inhibition at 1 µM (PKB gamma): 97%
